What was measured:
[1] = Intraduodenal dosing with and without β-glucuronidase, catheterized rat; type: in vivo; conditions: for Increase in AUC with β-glucuronidase: with vs no enzyme; for AUC / Cmax / concentration at 0 h / concentration at 0.25 h / concentration at 0.5 h / concentration at 1 h / concentration at 2 h / concentration at 3 h / concentration at 4 h / concentration at 5 h / concentration at 6 h / AUC average ± standard deviation 0 to 6 hours / Cmax average ± standard deviation: 10 mg/kg, rats N=6; for AUC: read-out: AUC average ± standard deviation 0 to 6 hours; for Cmax: read-out: Cmax average ± standard deviation; for concentration at 0 h / concentration at 0.25 h / concentration at 0.5 h / concentration at 1 h / concentration at 2 h / concentration at 3 h / concentration at 4 h / concentration at 5 h / concentration at 6 h: other: intraduodenal
Procedure: A catheterized rat model was used in which the agent alone or agent and β-glucuronidase enzyme was administered intraduodenally or intracolonically. The intraduodenal and intracolonic dosing was intended to prevent the potential for loss of enzymatic activity when orally dosing the β-glucuronidase (e.g. by degradation in the stomach). […]
(§1) For the oral gavage dosing, Compound 1 was prepared in neat PEG-400. For the intraduodenal and intracolonic dosing solutions, Compound 1 was added to neat Tween 80, the mixture was sonicated for thirty minutes at 45° C. until Compound 1 was completely dissolved and then deionized (DI) water was added to form a solution consisting of 20% Tween 80 and 80% DI water by weight.
For the oral enzyme solutions, β-glucuronidase was added to the final formulation at a concentration of 57,600 units/ml.
For the intraduodenal and intracolonic dosing, male Sprague Dawley rats weighing 300-400 g were purchased from Charles River Labs. All rat experiments were conducted under approved animal protocols. The rats were catheterized at Charles River Labs and had one or more of the following chronic catheters for dosing and sampling: jugular/carotid, duodenal, and colonic. Rats were limited to only one GI catheter and one vascular catheter. For IV dosing, rats were purchased with jugular and carotid catheters for dosing in the jugular catheter and blood sampling through the carotid catheter. For intraduodenal/intracolonic dosing, rats had one of the GI catheters for dosing and a carotid catheter for blood sampling.
The surgeries were done two weeks prior to start of testing. Rats were fed 4 hours post dose administration. All rats were dosed without anesthesia and sacrificed at the end of the study.
(§2) A quantitative method for determining the amount of (6,7-dimethoxy-2,4-dihydro-indeno[1,2-c]pyrazol-3-yl)-(3-fluoro-phenyl)-amine Compound 1 and its major metabolites, glucuronide A (Cpd 1-GluA) and glucuronide B (Cpd 1-GluB) (see Scheme A) in rat plasma was developed using phenacetin as an internal standard. [drawing 1]
(§3) The two glucuronide conjugates were prepared and purified to permit accurate quantification of the levels of intact parent Compound 1 versus Cpd 1-GluA and Cpd 1-GluB. Each standard curve for Compound 1, Cpd 1-GluA, and Cpd 1-GluB generated from rat plasma included ten concentration levels. […] The quantitative procedure for each sample included: sample preparation, HPLC separation and mass spectrometry detection.
(§4) The rat plasma was prepared using protein precipitation techniques. Reference standards and quality control samples in rat plasma for Compound 1 were transferred to a 96 deep-well plate. The precipitation solution contained 100 ng/ml of internal standard in acetonitrile. 300 μl of precipitation solution were added to 100 μl of each standard, quality control and plasma sample. Samples were vortexed for 10 mins, then centrifuged at 4500 RPM for 10 mins. 10 μl of each sample were injected for LC/MS/MS analysis.
(§5) The HPLC column chosen for the bioanalysis was purchased from Thermo Electron (Hypersil BetaBasic C18, 5 cm×2.1 mm). The eluting solvents were composed of Solvent A: 0.1% formic acid in H2O and Solvent B: 0.1% formic acid in acetonitrile. A step gradient was used and flow rate was 300 μl/min. The total run time was 3.2 mins. Solvent B was increased from 35% at 0 min to 75% at 2.1 mins and decreased back to 35% at 2.2 mins. The retention times for Compound 1, phenacetin, Cpd 1-GluA and Cpd 1-GluB were 1.1 min, 0.9 min, 1.3 min, and 1.6 min, respectively.
(§6) API3000 with a Turbo Ionspray interface from Applied Biosystems was used for the detection of Compound 1, the internal standard and major metabolites. Electrospray ionization was performed in the positive ion mode heated nebulizer with a temperature of 300° C. LC/MS/MS chromatograms were acquired in MRM (multiple reaction mode). […]

[2] = Oral gavage pharmacokinetics, jugular and portal vein sampling, first pass metabolism; type: in vivo, rat; conditions: for AUC: po, 75 mg/kg; for AUC / concentration at 0 h / concentration at 0.08 h / concentration at 0.25 h / concentration at 0.33 h / concentration at 0.5 h / concentration at 0.67 h / concentration at 1 h / concentration at 1.25 h / concentration at 1.5 h / concentration at 2 h / concentration at 3 h / concentration at 4 h / concentration at 6 h / concentration at 12 h / concentration at 24 h / Cmax: rats N=4; for Cmax: read-out: Cmax average ± standard deviation
Procedure: Two separate IV studies were carried out using two separate lots of animals. IV-A was run on the same lot of animals as the oral gavage study and IV-B was run on the same lot of animals as the intraduodenal and intra-colonic studies.
as §1
For the IV and oral gavage dosing (sampling at jugular and portal vein), young adult male Sprague Dawley rats weighing 250-400 g were purchased from Hilltop Lab Animals Inc. All rat experiments were conducted under approved animal protocols. The rats for the oral gavage dosing were catheterized at Hilltop Lab Animals Inc, had two chronic catheters for sampling: jugular and portal, were housed in cages of Culex™ Automated Blood Sampler (ABS) and blood samples were collected simultaneously via both cannula and were controlled by the Culex™ ABS control software.
as §2, §3, §4, §5
as §6, with “mode). The MRM transitions for Compound 1, the internal standard, Cpd 1-GluA and Cpd 1-GluB were from 326.3 to 190.6, 181.1 to 110.3, 502.2 to 368.3 and 502.2 to 326.4, respectively.” for “mode).”

[3] = male, Sprague Dawley, rat, plasma, Compound 1 10 mg/kg intraduodenal with β-glucuronidase
[4] = male, Sprague Dawley, rat, plasma, Compound 1 10 mg/kg intraduodenal without enzyme
[5] = Compound 1 10 mg/kg intraduodenal with β-glucuronidase
[6] = Compound 1 10 mg/kg intraduodenal without enzyme
[7] = male, Sprague Dawley, rat, plasma (jugular vein sample), Compound 1 75 mg/kg oral gavage, jugular sample
[8] = male, Sprague Dawley, rat, plasma (portal vein sample), Compound 1 75 mg/kg oral gavage, portal sample
[9] = male, Sprague Dawley, rat, portal vein plasma, Compound 1 75 mg/kg oral gavage, portal sample

With `COc1cc2c(cc1OC)-c1n[nH]c(Nc3cccc(F)c3)c1C2` [Compound 1, (6,7-dimethoxy-2,4-dihydro-indeno[1,2-c]pyrazol-3-yl)-(3-fluoro-phenyl)-amine] the “Increase in AUC with β-glucuronidase” value ([1]; intraduodenal 10 mg/kg) was 2.9 fold, the “Increase in AUC with β-glucuronidase” value ([1]; intraduodenal) was 294% and the AUC [1, 3] was 177 ± 55 ng·h/mL. It also gave a Cmax [1, 3] of 129 ± 41 ng/mL, an AUC [1, 4] of 60 ± 18 ng·h/mL and a Cmax [1, 4] of 75 ± 30 ng/mL. It also gave a concentration at 0 h [1, 3] of 0 ng/mL, a concentration at 0.25 h [1, 3] of 129 ± 41.4 ng/mL and a concentration at 0.5 h [1, 3] of 107 ± 26.6 ng/mL. For the same molecule, the concentration at 1 h [1, 3] was 75.6 ± 35 ng/mL, the concentration at 2 h [1, 3] was 21.2 ± 12.5 ng/mL and the concentration at 3 h [1, 3] was 12.9 ± 4.3 ng/mL. The concentration at 4 h [1, 3] was 9.5 ± 3.1 ng/mL, the concentration at 5 h [1, 3] was 3.7 ± 6.3 ng/mL and the concentration at 6 h [1, 3] was 1.7 ± 2.7 ng/mL. It also gave a concentration at 0 h [1, 4] of 0 ng/mL, a concentration at 0.25 h [1, 4] of 75.2 ± 30.3 ng/mL and a concentration at 0.5 h [1, 4] of 55.1 ± 15.5 ng/mL. The concentration at 1 h [1, 4] was 18.7 ± 5.9 ng/mL, the concentration at 2 h [1, 4] was 3.2 ± 0.6 ng/mL and the concentration at 3 h [1, 4] was 1.5 ± 0.9 ng/mL. For the same molecule, the concentration at 4 h [1, 4] was 1.6 ± 0.7 ng/mL, the concentration at 5 h [1, 4] was 0 ng/mL and the concentration at 6 h [1, 4] was 0 ng/mL. For the same molecule, the Tmax ([1]; male, Sprague Dawley, rat, plasma, intraduodenal 10 mg/kg, unchanged with or without enzyme) was 30 min, the “AUC average ± standard deviation 0 to 6 hours” value [1, 5] was 177.4 ± 55.3 ng·h/mL and the “Cmax average ± standard deviation” value [1, 5] was 129.4 ± 41.1 ng/mL. The “AUC average ± standard deviation 0 to 6 hours” value [1, 6] was 60.3 ± 17.8 ng·h/mL, the “Cmax average ± standard deviation” value [1, 6] was 76.0 ± 29.0 ng/mL and the “Local absorption ratio (Fa)” value ([2]; Compound 1 75 mg/kg oral, Equation (2)) was 48±18%. For the same molecule, the “Hepatic recovery ratio (Fh)” value ([2]; Equation (3)) was 40%, the “Extent of first pass metabolism” value ([2]; gut) was 52% and the “Extent of first pass metabolism” value ([2]; liver) was 60%. The AUC ([2]; male, Sprague Dawley, rat, plasma (jugular vein sample), Compound 1 75 mg/kg oral gavage, jugular sample, read-out: AUC average ± standard deviation 0 to 24 hours) was 2340 ng·h/mL, the AUC ([2]; male, Sprague Dawley, rat, plasma (jugular vein sample), Compound 1 75 mg/kg oral gavage, jugular sample, read-out: AUC average ± standard deviation 0 to infinite hours) was 2410 ng·h/mL and the concentration at 0 h [2, 7] was 6.7 ng/mL. For the same molecule, the concentration at 0.08 h [2, 7] was 447 ng/mL, the concentration at 0.25 h [2, 7] was 2120 ng/mL and the concentration at 0.33 h [2, 7] was 1770 ng/mL. For the same molecule, the concentration at 0.5 h [2, 7] was 1220 ng/mL, the concentration at 0.67 h [2, 7] was 626 ng/mL and the concentration at 1 h [2, 7] was 442 ng/mL. It also gave a concentration at 1.25 h [2, 7] of 465 ng/mL, a concentration at 1.5 h [2, 7] of 409 ng/mL and a concentration at 2 h [2, 7] of 378 ng/mL. For the same molecule, the concentration at 3 h [2, 7] was 127 ng/mL, the concentration at 4 h [2, 7] was 61.3 ng/mL and the concentration at 6 h [2, 7] was 51.1 ng/mL. For the same molecule, the concentration at 12 h [2, 7] was 22.8 ng/mL, the concentration at 24 h [2, 7] was 7.7 ng/mL and the Cmax [2, 7] was 2120 ng/mL. The concentration at 0.67 h [2, 8] was 2300 ng/mL, the concentration at 1 h [2, 8] was 346 ng/mL and the concentration at 1.25 h [2, 8] was 972 ng/mL. It also gave a concentration at 1.5 h [2, 8] of 465 ng/mL, a concentration at 2 h [2, 8] of 1880 ng/mL and a concentration at 3 h [2, 8] of 336 ng/mL. For the same molecule, the concentration at 4 h [2, 8] was 398 ng/mL, the concentration at 6 h [2, 8] was 1010 ng/mL and the concentration at 12 h [2, 8] was 250 ng/mL. For the same molecule, the bioavailability ([2]; male, Sprague Dawley, rat, plasma, Compound 1 75 mg/kg oral, read-out: Systemic oral bioavailability) was 19 ± 5%, the Tmax ([2]; male, Sprague Dawley, rat, plasma, rats, Compound 1 75 mg/kg oral gavage) was 15 min and the AUC ([2]; male, Sprague Dawley, rat, portal vein plasma, Compound 1 75 mg/kg oral gavage, portal sample, read-out: AUC average ± standard deviation 0 to 24 hours) was 11900 ng·h/mL. It also gave an AUC ([2]; male, Sprague Dawley, rat, portal vein plasma, Compound 1 75 mg/kg oral gavage, portal sample, read-out: AUC average ± standard deviation 0 to infinite hours) of 12500 ng·h/mL, a concentration at 0 h [2, 9] of 2.4 ng/mL and a concentration at 0.08 h [2, 9] of 7520 ng/mL. It also gave a concentration at 0.25 h [2, 9] of 4250 ng/mL, a concentration at 0.33 h [2, 9] of 3880 ng/mL and a concentration at 0.5 h [2, 9] of 873 ng/mL. For the same molecule, the concentration at 24 h [2, 9] was 224 ng/mL, the Cmax [2, 9] was 8690 ng/mL and the “Plasma level of Compound 1 relative to level of the metabolites” value ([2]; oral administration) was 6%.

Source: US20080031866A1, “METHOD FOR MODULATING THE PHARMACOKINETICS AND METABOLISM OF A THERAPEUTIC AGENT” (priority 2006, published 2008)
